Measured values taken from patent US11198898B2, “Chemical tools for imaging phospholipase D activity” (CORNELL UNIVERSITY, priority 2017, dated 2021).
Where two headings read alike, the source gives them in different places.

Experiments:
[1] = test system: commercially available PLD; experiment: In vitro transphosphatidylation of DOPC with alkynols by a commercially available PLD, CuAAC with Az488, HPLC-fluorescence/ESI-MS; assay type: biochemical; settings: incubated with DOPC and PLD
[2] = test system: endogenous PLD activity in HeLa cells; experiment: Azidoalcohol labelling of PMA-stimulated HeLa cells, lipid extraction, SPAAC with BODIPY-cyclooctyne 1, HPLC; assay type: cell-based, human; settings: for decrease of the signal: isoform-selective inhibitor during labeling
[3] = test system: PLD activity in live cells; assay type: cell-based
[4] = test system: PLD activity in HeLa cells; experiment: Imaging of PLD-mediated PA synthesis in fixed HeLa cells with alkynols, CuAAC with Az488, confocal microscopy; assay type: cell-based, human
Protocol: To image sites of PLD-mediated PA synthesis, HeLa cells were treated with each of the three longer-chain alkynols and again stimulated PLD activity acutely with PMA, in the absence or presence of FIPI. Rather than proceeding with a whole-cell lipid extraction, cells were fixed with paraformaldehyde and subjected to CuAAC labeling with Az488. […] The observed labeling pattern was complex, likely the result of PA synthesis on membranes of multiple intracellular compartments. To determine the subcellular locations of the hexynol-based labeling, a series of colocalization studies were performed with markers of various organelle membranes. In these studies, HeLa cells were transfected with plasmids encoding fluorescent protein fusions to constituents of several organellar membranes and then the PA labeling protocol was performed using 1 mM hexynol and, where appropriate, either Az488 or an azide-containing tetramethylrhodamine derivative.

[5] = test system: basal, endogenous PLD activity in HeLa cells; experiment: Basal PLD activity: HeLa cells with 1 mM AzProp, lipid extraction, SPAAC with (1), HPLC; assay type: cell-based, human
Protocol: Up to this point, the efforts focused on monitoring acute PLD activation in response to a stimulus, by using PMA as a model pharmacological agent to mimic activation of several signal transduction pathways. In the absence of a stimulus, however, it is known that PLD enzymes display a much lower but appreciable level of basal activity.
To accomplish this, HeLa cells were treated with 1 mM AzProp, followed by lipid extraction, SPAAC labeling with (1), and HPLC analysis.

[6] = test system: basal PLD activity in HeLa cells; experiment: Basal PLD activity in live cells: AzProp/SPAAC labelling, confocal microscopy with isoform-selective inhibitors; assay type: cell-based, human; settings: for effect of inhibitor on ER- and Golgi-derived fluorescence: HeLa cells; for effect of inhibitor on the high-fluorescence cell population: confocal microscopy
Protocol: To image sites of basal PLD activity within live cells, cells were treated with 1 mM AzProp for 2 hours and rinsed. The SPAAC reaction was then performed using (1).
Further experiments then examined the distribution of basal PLD activity at both the cellular and subcellular levels. […] Thus, at the cellular level, the high fluorescence of a minority of cells can be attributed to PLD1 activity, and the moderate fluorescence in the majority of cells to PLD2.
The subcellular localization of AzProp-marked basal PLD activity appeared to be similar to that of AzProp-marked, PMA-stimulated PLD enzymes, that is localized to a mixture of ER, Golgi, endosomal, and lysosomal membranes. Isoform-selective inhibitors were used to probe the relative contributions of each PLD isoform to PA biosynthetic activity on different organelle membranes. […] Thus, it can be concluded that, in HeLa cells, the bulk of ER-localized, basal PLD activity is due to PLD1, whereas PLD activity on Golgi membranes is due to a roughly equal mix of PLD1 and PLD2.

[7] = test system: mammalian PLDs in HeLa cells; experiment: Alkynol labelling of PMA-stimulated HeLa cells, lipid extraction, CuAAC with Az488, HPLC-fluorescence; assay type: cell-based, human; settings: for extent of incorporation into phosphatidyl alcohols compared to the shorter alkynols: at the same concentration
Protocol: Further experiments evaluated whether mammalian PLDs would accept alkynols as substrates within live cells. HeLa cells were treated with each of the five alkynols for 20 minutes, stimulated acute PA biosynthesis pharmacologically using phorbol 12-myristate 13-acetate (PMA) (McDermott M, et al., Biochem. Cell Biol. 2004 February; 82(1):225-53), and then isolated total cellular lipid extracts. Following CuAAC labeling with Az488, the samples were analyzed by HPLC coupled to fluorescence detection. The HPLC-fluorescence results for the five alkynols (denoted as 1, 2, 3, 4, or 5 in panels 1-5, respectively) are shown in FIG. 2B.
While all five alkynols were accepted as transphosphatidylation substrates in HeLa cells, they were processed by cellular PLDs with different efficiencies. […] The molecular identities of the fluorescently labeled phosphatidyl alcohols (PA analogs) were verified by analyzing labeled extracts from cells treated with each of the three longer-chain alkynols by HPLC followed by ESI-MS.
This robust labeling with pentynol, hexynol, and heptynol led to further experiments to investigate whether the dose of alkynol could be lowered. The initial concentration of 12.9 mM alkynol corresponded to the low end of the concentration range of 0.1-0.5 mol % that is typically used in the traditional TLC-based butanol transphosphatidylation assay. Such high concentrations of alcohol, however, have several negative consequences. First, they are sufficient to compete with water in the PLD active site and reduce the ability of PLDs to synthesize PA, thus impacting PA-dependent signaling.

[8] = HeLa cells, PMA, SPAAC with BODIPY-cyclooctyne 1
[9] = PMA-stimulated HeLa cells, HPLC

With C#CCCO [3-butyn-1-ol] the “formation of the expected fluorescent phosphatidyl alcohol product (PLD substrate in vitro)” value (shortened to “formation”) [1] was “confirmed the identity of the expected fluorescent phosphatidyl alcohol products”.
For [N-]=[N+]=NCCCCO [AzBut, 4-azido-1-butanol], the “fluorescent lipid species by HPLC” value [2, 8] was “presence of fluorescent lipid species” and the “efficacy as PLD substrate” value [2, 9] was “performed roughly equivalently”.
For [N-]=[N+]=NCCO [AzEt, 2-azidoethanol], the “signal-to-background among the azidoalcohols” value [3] was “highest”, the “efficacy as PLD substrate” value [2] was “poorer PLD substrate” and the “fluorescent lipid species by HPLC” value [2] was “presence of fluorescent lipid species”.
With [N-]=[N+]=NCCCCCO [AzPent, 5-azido-1-pentanol] the “fluorescent lipid species by HPLC” value [2, 8] was “presence of fluorescent lipid species” and the “efficacy as PLD substrate” value [2, 9] was “performed roughly equivalently”.
In the case of O=C(NCCN1CCC(n2c(=O)[nH]c3ccccc32)CC1)c1cc2cc(F)ccc2[nH]1 [FIPI, 5-fluoro-2-indolyl deschlorohalopemide, reference compound], the “labeling in cells treated with alkynol and PLD inhibitor (negative control)” value ([4]; PMA, CuAAC with Az488) is reported as “minimal background labeling”, the “effect of inhibitor on basal phosphatidyl alcohol production” value ([5]; unstimulated HeLa cells) is reported as “prevented phosphatidyl alcohol production” and the “effect of inhibitor on fluorescent lipid species” value ([2]; treatment of cells during the labeling procedure, PMA-stimulated) is reported as “complete loss of the fluorescent lipid species”.
For C[C@@H](CN1CCC(n2c(=O)[nH]c3cc(Br)ccc32)CC1)NC(=O)[C@@H]1C[C@H]1c1ccccc1 [VU0359595], the “share of the unstimulated PLD activity attributed to the inhibited isoform” value [5] was “roughly half”, the “effect of inhibitor on ER- and Golgi-derived fluorescence” value [6] was “selective disappearance of most of the ER-derived fluorescence but only a portion of the Golgi-derived fluorescence” and the “effect of inhibitor on the high-fluorescence cell population” value [6] was “disappearance of high-fluorescence cells”. The “decrease of the signal” value ([2]; PMA-stimulated HeLa cells) was “approximately 75%”.
In the case of O=C(NCCN1CCC2(CC1)C(=O)NCN2c1cccc(F)c1)c1ccc2ccccc2c1 [VU0364739], the “share of the unstimulated PLD activity attributed to the inhibited isoform” value [5] is reported as “roughly half”, the “effect of inhibitor on ER- and Golgi-derived fluorescence” value [6] is reported as “decrease in Golgi-derived fluorescence but had minimal effect on ER-derived fluorescence” and the “effect of inhibitor on the high-fluorescence cell population” value [6] is reported as “did not eliminate the high-fluorescence population”. For the same compound, the “decrease of the signal” value ([2]; PMA-stimulated HeLa cells) was ~25%.
For C#CCCCCCO [heptynol, 6-heptyn-1-ol], the “extent of incorporation into phosphatidyl alcohols compared to the shorter alkynols” value (“extent … compared to the shorter alkynols” for short) [7] was “incorporated to a greater extent into phosphatidyl alcohols” and the “formation” value [1] was “confirmed the identity of the expected fluorescent phosphatidyl alcohol products”.
For C#CCCCCO [hexynol, 5-hexyn-1-ol], the “alkynol concentration permitting detection of alkynol-dependent and FIPI-sensitive fluorescence” value ([4]; confocal microscopy) was ≥ 100 µM, the “signal-to-background ratio among the three longer-chain alkynols” value ([4]; confocal microscopy) was “highest signal-to-background ratio” and the “alkynol concentration at which PA production could be detected in cells” value ([7]; HPLC) was ≥ 100 µM. For the same compound, the “extent … compared to the shorter alkynols” value [7] was “incorporated to a greater extent into phosphatidyl alcohols” and the “formation” value [1] was “confirmed the identity of the expected fluorescent phosphatidyl alcohol products”.
In the case of C#CCCCO [pentynol, 4-pentyn-1-ol], the “extent … compared to the shorter alkynols” value [7] is reported as “incorporated to a greater extent into phosphatidyl alcohols” and the “formation” value [1] is reported as “confirmed the identity of the expected fluorescent phosphatidyl alcohol products”.
C#CCO [propynol] was tested, and the “formation” value [1] was “confirmed the identity of the expected fluorescent phosphatidyl alcohol products”.
